Reference: ChEMBL document CHEMBL1137419, “Identification of potent 5-pyrimidinyl-2-aminothiazole CDK4, 6 inhibitors with significant selectivity over CDK1, 2, 5, 7, and 9” (Bioorg Med Chem Lett, 2006)

What was measured:
[1] = target: T1, Cyclin-dependent kinase 4 (Homo sapiens, UniProt P11802); experiment: Inhibition of CDK4
[2] = target: Cyclin-dependent kinase 1 (Homo sapiens, UniProt P06493); experiment: Inhibition of CDK1
[3] = target: Cyclin-dependent kinase 2 (Homo sapiens, UniProt P24941); experiment: Inhibition of CDK2
[4] = target: Cyclin-dependent kinase 5 (Homo sapiens, UniProt Q00535); experiment: Inhibition of CDK5
Chain of Cyclin-dependent kinase 5 (Q00535 whole entry): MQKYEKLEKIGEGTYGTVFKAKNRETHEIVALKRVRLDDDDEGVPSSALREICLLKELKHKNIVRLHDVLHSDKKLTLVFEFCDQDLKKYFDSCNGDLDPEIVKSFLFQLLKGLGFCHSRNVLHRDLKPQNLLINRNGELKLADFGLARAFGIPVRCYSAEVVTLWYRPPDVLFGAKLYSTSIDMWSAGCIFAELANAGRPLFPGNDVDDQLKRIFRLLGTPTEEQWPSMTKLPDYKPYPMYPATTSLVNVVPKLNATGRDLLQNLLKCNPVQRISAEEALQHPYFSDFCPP

[5] = target: Cyclin-dependent kinase 7 (Homo sapiens, UniProt P50613); experiment: Inhibition of CDK7
Chain of Cyclin-dependent kinase 7 (P50613 whole entry): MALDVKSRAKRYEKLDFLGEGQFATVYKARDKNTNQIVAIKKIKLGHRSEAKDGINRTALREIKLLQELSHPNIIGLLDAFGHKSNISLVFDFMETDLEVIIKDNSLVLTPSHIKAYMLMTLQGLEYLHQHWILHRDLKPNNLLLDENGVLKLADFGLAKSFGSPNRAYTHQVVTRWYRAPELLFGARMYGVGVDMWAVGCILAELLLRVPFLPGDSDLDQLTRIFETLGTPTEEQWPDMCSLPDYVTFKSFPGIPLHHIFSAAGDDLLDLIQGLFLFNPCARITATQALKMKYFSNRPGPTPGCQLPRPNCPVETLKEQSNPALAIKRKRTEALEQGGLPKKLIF

[6] = target: Cyclin-dependent kinase 9 (Homo sapiens, UniProt P50750); experiment: Inhibition of CDK9
Chain of Cyclin-dependent kinase 9 (P50750 whole entry): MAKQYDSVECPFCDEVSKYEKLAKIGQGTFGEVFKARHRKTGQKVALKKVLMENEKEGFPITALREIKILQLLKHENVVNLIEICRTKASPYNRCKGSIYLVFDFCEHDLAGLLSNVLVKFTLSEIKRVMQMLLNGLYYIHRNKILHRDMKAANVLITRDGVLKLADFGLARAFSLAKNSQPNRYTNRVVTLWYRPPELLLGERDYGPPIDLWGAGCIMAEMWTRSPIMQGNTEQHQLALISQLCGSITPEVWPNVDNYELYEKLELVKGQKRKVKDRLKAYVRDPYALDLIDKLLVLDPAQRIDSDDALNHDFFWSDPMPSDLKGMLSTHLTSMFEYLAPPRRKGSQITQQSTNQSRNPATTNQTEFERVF

[7] = system: EOL1; experiment: Cell cycle arrest in Eol1 cells by accumulation at G1 phase; type: functional, Homo sapiens
[8] = target: T1, Cyclin-dependent kinase 4; experiment: Inhibition of pRb phosphorylation at Ser780 residue by CDK4; type: functional; conditions: concentration not given here
[9] = target: Cyclin-dependent kinase 6 (Homo sapiens) (UniProt Q00534); experiment: Inhibition of pRb phosphorylation at Ser780 residue by CDK6; type: functional; conditions: concentration not given here
Chain of Cyclin-dependent kinase 6 (Homo sapiens) (Q00534 whole entry): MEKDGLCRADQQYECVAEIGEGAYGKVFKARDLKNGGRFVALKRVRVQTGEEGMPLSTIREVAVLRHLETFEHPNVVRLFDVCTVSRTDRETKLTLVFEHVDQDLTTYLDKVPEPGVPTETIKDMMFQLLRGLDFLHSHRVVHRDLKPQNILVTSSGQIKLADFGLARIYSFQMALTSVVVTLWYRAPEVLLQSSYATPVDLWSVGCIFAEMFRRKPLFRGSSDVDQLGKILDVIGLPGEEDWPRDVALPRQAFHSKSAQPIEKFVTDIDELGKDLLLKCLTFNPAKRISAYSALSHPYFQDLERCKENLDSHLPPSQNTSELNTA

[10] = system: EOL1; experiment: Inhibition of pRb phosphorylation in Eol1 xenografted in nude rat at 510 nM, iv after 24 hrs; type: functional, Homo sapiens
[11] = system: EOL1; experiment: Inhibition of BrdU incorporation in Eol1 xenografted in nude rat at 510 nM, iv after 24 hrs; type: functional, Homo sapiens

Chain of Cyclin-dependent kinase 1 (P06493 whole entry): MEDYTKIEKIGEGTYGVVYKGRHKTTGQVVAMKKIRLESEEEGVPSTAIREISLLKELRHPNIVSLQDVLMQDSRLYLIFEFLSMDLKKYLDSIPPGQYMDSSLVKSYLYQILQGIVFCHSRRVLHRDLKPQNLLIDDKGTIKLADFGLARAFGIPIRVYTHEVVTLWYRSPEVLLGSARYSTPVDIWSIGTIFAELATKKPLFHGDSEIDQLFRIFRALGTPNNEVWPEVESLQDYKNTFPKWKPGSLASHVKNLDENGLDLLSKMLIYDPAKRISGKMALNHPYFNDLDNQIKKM
T1 sequence (P11802 whole entry): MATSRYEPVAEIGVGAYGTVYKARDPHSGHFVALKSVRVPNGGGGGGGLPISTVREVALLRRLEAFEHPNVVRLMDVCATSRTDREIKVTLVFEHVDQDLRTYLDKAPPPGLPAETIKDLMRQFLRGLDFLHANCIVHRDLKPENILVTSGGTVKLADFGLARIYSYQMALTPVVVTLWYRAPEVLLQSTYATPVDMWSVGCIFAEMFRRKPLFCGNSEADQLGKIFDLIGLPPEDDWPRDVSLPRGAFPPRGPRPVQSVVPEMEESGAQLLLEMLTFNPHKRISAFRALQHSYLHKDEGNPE

| IC50 [1] | IC50 [2] | IC50 [3] | IC50 [4] | IC50 [5] | IC50 [6] | inhibition [8] | inhibition [9] | SMILES | Activity [7] | Inhibition [10] | Inhibition [11] |
| --- | --- | --- | --- | --- | --- | --- | --- | --- | --- | --- | --- |
| 0.013 µM | > 1 µM | 0.27 µM | > 10 µM | 0.19 µM | 0.026 µM |  |  | Cc1cnc(OC2CCCCC2)nc1-c1cnc(Nc2ccccn2)s1 |  |  |  |
|  |  |  | 3 µM |  |  | > 80% | > 80% | Cc1cc(-c2cnc(Nc3cnc(CN4CCN(C)CC4)cn3)s2)nc(OC2CCCCC2)n1 | 90% | 99% | 91% |
| 0.0042 µM | 0.024 µM | 0.014 µM | 0.034 µM | 0.02 µM | 0.0025 µM |  |  | c1ccc(Nc2ncc(-c3ccnc(OC4CCCCC4)n3)s2)nc1 |  |  |  |
| 0.034 µM | > 10 µM | > 10 µM | > 10 µM | > 10 µM | > 10 µM |  |  | Cc1cc(-c2cnc(Nc3ccccn3)s2)nc(OC2CCCCC2)n1 |  |  |  |
